# ChEMBL document CHEMBL1201862, “PubChem BioAssay data set” (2004)
# Where “and” joins values, the source holds several entries; their conditions need not be identical. Equal values may be shown once. Where a name gives a salt, the structure may show the parent alone. Calls of active or inactive are those of the source.
# How the values were obtained:
# [1] = target: Cyclin-dependent kinase 5 (Homo sapiens, UniProt Q00535); format: functional;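 also: CDK5 measured as one member of a kinase profiling panel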
# [2] = target: Casein kinase I isoform gamma-1 (Homo sapiens, UniProt Q9HCP0); format: functional;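 also: measured as the CSNK1G1 member of a kinome profiling panel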
# [3] = target: Calcium/calmodulin-dependent protein kinase type II subunit delta (Homo sapiens, UniProt Q13557); format: functional
# [4] = target: Proto-oncogene tyrosine-protein kinase ROS (Homo sapiens, UniProt P08922); format: functional;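 also: ROS1 tested as one member of a kinome-wide kinase panel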
# [5] = target: Macrophage colony-stimulating factor 1 receptor (Homo sapiens, UniProt P07333); format: functional;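 also: value comes from the Navigating the Kinome screening panel, CSF1R member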
# [6] = target: Protein kinase C gamma type (Homo sapiens, UniProt P05129); format: functional
# [7] = target: Serine/threonine-protein kinase pim-3 (Homo sapiens, UniProt Q86V86); format: functional;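 also: value obtained as one member of a broad kinase panel profiling effort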
# Activated CDC42 kinase 1 = Activated CDC42 kinase 1 (Homo sapiens, UniProt Q07912); experiment: Navigating the Kinome. Panel member name: ACK1; format: functional
# [8] = target: Platelet-derived growth factor receptor alpha (Homo sapiens, UniProt P16234); experiment: Navigating the Kinome. Panel member name: PDGFRA; format: functional
# [9] = target: Serine/threonine-protein kinase BRSK1 (Homo sapiens, UniProt Q8TDC3); format: functional;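 also: measured within a kinome-wide kinase panel, with the target listed as KIAA1811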
# [10] = target: Tyrosine-protein kinase Lyn (Homo sapiens, UniProt P07948); format: functional;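 also: lyn as one member of a kinase panel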
# [11] = target: Serine/threonine-protein kinase Chk2 (Homo sapiens, UniProt O96017); format: functional;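 also: CHEK2 entry within a kinome-wide screening panel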
# [12] = target: Proto-oncogene tyrosine-protein kinase Src (Homo sapiens, UniProt P12931); format: functional;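 also: SRC entry within a kinome-wide kinase profiling panel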
# [13] = target: Tyrosine-protein kinase BTK (Homo sapiens, UniProt Q06187); format: functional
# [14] = target: Calcium/calmodulin-dependent protein kinase type II subunit alpha (Homo sapiens, UniProt Q9UQM7); experiment: Navigating the Kinome. Panel member name: CAMK2A; format: functional
# [15] = target: MAP kinase-activated protein kinase 5 (Homo sapiens, UniProt Q8IW41); format: functional;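 also: measured as one member of a kinome panel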
# [16] = target: MAP kinase-activated protein kinase 2 (Homo sapiens, UniProt P49137); format: functional;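 also: measured as one member of a kinome-wide kinase panel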
# [17] = target: Homeodomain-interacting protein kinase 2 (Homo sapiens, UniProt Q9H2X6); format: functional;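 also: measured within a kinome-wide kinase profiling panel, HIPK2 being one panel member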
# Activin receptor type-1 = Activin receptor type-1 (Homo sapiens, UniProt Q04771); experiment: Navigating the Kinome. Panel member name: ACVR1; format: functional
# [18] = target: Mitogen-activated protein kinase kinase kinase kinase 2 (Homo sapiens, UniProt Q12851); format: functional;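 also: measured as one member of a kinome-wide kinase panel, with MAP4K2 as the panel entry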
# [19] = target: MAP/microtubule affinity-regulating kinase 3 (Homo sapiens, UniProt P27448); format: functional;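 also: MARK3 affinity measured as one member of a kinome panel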
# [20] = target: Dual specificity mitogen-activated protein kinase kinase 2 (Homo sapiens, UniProt P36507); experiment: Navigating the Kinome. Panel member name: MAP2K2; format: functional
# [21] = target: Testis-specific serine/threonine-protein kinase 2 (Homo sapiens, UniProt Q96PF2); format: functional;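 also: part of the Navigating the Kinome panel, target entry STK22B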
# Aurora kinase B = Aurora kinase B (Homo sapiens, UniProt Q96GD4); format: functional
# [22] = target: Dual specificity protein kinase CLK2 (Homo sapiens, UniProt P49760); format: functional
# [23] = target: Maternal embryonic leucine zipper kinase (Homo sapiens, UniProt Q14680); format: functional
# HEK293 = experiment: optical interference in Abeta FP readout, dose response, artefact control for IDE activator project, biochemical, fluorescence polarization (AID 588442); format: functional, cell-based; conditions: Homo sapiens
# [24] = system: Streptococcus sp. 'group A'; experiment: growth inhibition of control SK(-) GAS strain, dose response, counter-screen for streptokinase expression inhibitor project, luminescence, kanamycin, BacTiterGlo, confirmation (AID 1900); format: functional, organism-based
# [25] = target: T1, RNA-binding protein pos-1 (Caenorhabditis elegans, UniProt G5EF15); experiment: inhibitors of POS-1/mex-3 RNA binding, dose response, biochemical, fluorescence polarization (AID 1964);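 also: purified POS-1 fused to maltose binding protein made in E. coli; potency of compounds blocking POS-1 binding to fluorescent RNA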
# T1 sequence (G5EF15 whole entry): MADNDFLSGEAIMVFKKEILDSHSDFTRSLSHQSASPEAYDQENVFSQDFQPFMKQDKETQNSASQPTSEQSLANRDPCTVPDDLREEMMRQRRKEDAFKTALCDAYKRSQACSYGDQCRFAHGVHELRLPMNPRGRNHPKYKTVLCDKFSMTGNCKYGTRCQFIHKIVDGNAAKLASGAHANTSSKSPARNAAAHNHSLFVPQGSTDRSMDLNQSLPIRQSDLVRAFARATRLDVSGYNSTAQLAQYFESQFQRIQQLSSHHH
# [26] = target: T2, Zinc finger protein mex-5 (Caenorhabditis elegans, UniProt Q9XUB2); experiment: MEX-5/TCR-2 RNA interaction inhibitors, dose response, biochemical, C. elegans, fluorescence polarization (AID 1960)
# T2 sequence (Q9XUB2 whole entry): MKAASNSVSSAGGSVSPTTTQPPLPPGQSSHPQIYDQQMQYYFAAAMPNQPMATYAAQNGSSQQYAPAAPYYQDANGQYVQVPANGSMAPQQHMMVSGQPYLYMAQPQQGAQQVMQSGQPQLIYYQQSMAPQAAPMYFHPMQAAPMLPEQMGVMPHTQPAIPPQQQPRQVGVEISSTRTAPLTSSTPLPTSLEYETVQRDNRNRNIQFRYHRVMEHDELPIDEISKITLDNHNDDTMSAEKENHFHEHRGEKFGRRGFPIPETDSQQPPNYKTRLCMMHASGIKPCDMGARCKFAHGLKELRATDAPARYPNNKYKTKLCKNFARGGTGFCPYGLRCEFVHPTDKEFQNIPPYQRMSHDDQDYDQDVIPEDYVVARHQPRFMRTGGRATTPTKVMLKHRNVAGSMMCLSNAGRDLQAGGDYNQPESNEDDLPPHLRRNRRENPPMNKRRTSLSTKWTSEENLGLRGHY
# [27] = target: T3, Intestinal-type alkaline phosphatase (Homo sapiens, UniProt P09923); experiment: human IAP inhibitors, dose response, biochemical, luminescent, uHTS hits, set 2 (AID 488793); format: functional
# [28] = HeLa cell cytotoxicity, dose response, cytotoxicity control for MgcRacGAP inhibitor project (AID 624300); format: functional
# [29] = target: T3, Intestinal-type alkaline phosphatase; experiment: Dose Response confirmation of uHTS hits from a small molecule inhibitors of human intestinal alkaline phosphatase via a luminescent assay. [Related pubchem assays (depositor defined):AID2544, AID2574]; format: functional
# Exodeoxyribonuclease V = Exodeoxyribonuclease V (Escherichia coli (strain K12), UniProt P04993+P07648+P08394); experiment: E. coli RecBCD inhibitors, dose response, counter-screen for AddAB inhibitor project, absorbance, V66 E. coli, mutant T4 phage (AID 492957); format: functional, cell-based, Escherichia coli str. K-12 substr. MG1655
# T3 sequence (P09923 whole entry): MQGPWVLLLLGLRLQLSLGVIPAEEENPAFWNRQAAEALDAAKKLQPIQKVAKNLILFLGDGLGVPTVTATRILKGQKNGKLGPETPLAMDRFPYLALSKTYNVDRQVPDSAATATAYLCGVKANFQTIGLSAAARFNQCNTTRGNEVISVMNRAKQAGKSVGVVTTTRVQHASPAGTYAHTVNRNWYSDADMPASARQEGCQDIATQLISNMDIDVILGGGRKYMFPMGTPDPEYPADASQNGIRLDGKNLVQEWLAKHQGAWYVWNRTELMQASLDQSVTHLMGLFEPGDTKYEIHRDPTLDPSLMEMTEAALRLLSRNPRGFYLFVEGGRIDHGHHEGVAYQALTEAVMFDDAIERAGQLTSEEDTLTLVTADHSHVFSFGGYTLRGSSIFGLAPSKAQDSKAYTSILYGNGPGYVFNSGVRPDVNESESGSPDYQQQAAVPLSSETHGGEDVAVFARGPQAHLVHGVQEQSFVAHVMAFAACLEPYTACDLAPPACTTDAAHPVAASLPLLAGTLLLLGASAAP
# Chain of MAP kinase-activated protein kinase 2 (P49137 whole entry): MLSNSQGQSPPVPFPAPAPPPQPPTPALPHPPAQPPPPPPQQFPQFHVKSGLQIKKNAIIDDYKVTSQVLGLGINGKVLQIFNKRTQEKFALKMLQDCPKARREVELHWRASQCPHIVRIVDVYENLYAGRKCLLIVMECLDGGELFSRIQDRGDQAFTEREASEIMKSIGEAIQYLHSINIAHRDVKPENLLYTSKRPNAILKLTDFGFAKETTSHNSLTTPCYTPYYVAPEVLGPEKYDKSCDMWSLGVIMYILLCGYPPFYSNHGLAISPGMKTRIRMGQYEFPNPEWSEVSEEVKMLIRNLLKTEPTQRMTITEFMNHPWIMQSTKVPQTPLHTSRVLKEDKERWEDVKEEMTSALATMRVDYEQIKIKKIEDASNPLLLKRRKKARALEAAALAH
# Chain of MAP kinase-activated protein kinase 5 (Q8IW41 whole entry): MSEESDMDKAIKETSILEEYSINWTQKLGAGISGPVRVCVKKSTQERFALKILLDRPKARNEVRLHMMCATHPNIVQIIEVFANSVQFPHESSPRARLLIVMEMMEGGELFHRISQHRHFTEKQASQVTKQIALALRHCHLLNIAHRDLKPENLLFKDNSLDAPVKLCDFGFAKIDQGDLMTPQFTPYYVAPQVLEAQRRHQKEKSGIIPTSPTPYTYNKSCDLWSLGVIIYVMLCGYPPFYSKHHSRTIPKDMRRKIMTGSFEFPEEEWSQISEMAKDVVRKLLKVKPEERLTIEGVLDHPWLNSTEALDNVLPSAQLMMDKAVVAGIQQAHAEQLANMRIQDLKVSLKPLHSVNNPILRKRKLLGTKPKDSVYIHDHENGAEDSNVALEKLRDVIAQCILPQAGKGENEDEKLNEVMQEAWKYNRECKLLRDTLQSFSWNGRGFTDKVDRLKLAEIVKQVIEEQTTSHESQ
# Chain of Dual specificity protein kinase CLK2 (P49760 whole entry): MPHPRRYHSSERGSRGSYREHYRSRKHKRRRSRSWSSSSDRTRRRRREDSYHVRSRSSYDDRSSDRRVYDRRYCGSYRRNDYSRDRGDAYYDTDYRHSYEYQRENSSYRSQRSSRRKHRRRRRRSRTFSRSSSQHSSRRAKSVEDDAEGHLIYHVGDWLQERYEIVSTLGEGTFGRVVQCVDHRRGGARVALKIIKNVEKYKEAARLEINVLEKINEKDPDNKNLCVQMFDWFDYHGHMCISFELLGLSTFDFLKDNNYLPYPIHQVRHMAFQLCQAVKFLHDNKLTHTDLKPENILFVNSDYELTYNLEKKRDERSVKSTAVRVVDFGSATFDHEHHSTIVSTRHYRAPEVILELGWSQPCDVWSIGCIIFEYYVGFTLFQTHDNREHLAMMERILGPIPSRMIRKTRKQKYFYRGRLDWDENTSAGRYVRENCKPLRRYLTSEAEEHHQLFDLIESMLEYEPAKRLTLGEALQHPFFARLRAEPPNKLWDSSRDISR
# Chain of Platelet-derived growth factor receptor alpha (P16234 whole entry): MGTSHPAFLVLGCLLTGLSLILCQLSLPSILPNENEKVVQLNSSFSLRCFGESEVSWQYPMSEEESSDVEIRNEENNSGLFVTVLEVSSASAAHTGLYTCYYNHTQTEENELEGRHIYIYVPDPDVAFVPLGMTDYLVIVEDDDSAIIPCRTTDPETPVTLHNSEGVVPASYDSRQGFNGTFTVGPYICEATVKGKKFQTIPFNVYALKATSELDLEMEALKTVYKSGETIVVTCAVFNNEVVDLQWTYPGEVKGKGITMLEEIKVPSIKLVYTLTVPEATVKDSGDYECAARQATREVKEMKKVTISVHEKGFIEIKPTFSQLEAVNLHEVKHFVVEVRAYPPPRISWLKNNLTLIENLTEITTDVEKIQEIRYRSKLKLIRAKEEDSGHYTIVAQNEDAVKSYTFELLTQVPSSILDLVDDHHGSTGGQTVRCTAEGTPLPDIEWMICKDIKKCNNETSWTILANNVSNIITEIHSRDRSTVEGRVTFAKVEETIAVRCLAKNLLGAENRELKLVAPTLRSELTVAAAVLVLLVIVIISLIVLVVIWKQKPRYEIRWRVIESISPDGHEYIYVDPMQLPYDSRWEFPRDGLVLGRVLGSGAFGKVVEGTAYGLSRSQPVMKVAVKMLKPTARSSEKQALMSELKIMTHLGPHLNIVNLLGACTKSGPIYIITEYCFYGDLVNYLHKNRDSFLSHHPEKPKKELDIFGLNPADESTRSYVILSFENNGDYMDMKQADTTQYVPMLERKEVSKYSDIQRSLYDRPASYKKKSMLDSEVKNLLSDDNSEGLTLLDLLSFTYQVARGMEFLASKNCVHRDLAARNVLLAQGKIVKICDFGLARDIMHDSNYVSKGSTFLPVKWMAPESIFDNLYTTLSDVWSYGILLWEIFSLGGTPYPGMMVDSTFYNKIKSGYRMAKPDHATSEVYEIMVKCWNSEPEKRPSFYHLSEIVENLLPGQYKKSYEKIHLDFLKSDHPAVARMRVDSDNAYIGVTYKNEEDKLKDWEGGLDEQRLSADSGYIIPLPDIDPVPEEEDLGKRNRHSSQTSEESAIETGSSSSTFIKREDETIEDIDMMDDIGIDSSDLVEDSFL
# Chain of Casein kinase I isoform gamma-1 (Q9HCP0 whole entry, canonical isoform): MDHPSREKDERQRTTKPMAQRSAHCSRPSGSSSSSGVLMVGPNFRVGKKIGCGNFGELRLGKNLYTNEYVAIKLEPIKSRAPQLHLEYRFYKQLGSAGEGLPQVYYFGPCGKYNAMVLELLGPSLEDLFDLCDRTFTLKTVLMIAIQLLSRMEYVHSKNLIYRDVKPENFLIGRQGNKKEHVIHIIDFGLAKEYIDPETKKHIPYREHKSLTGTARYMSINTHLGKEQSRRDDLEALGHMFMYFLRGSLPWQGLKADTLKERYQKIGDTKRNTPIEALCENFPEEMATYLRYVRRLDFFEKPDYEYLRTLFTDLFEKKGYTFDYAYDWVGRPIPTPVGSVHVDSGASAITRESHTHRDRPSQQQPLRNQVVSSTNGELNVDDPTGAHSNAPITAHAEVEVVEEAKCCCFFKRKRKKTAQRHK
# Chain of Tyrosine-protein kinase BTK (Q06187 whole entry): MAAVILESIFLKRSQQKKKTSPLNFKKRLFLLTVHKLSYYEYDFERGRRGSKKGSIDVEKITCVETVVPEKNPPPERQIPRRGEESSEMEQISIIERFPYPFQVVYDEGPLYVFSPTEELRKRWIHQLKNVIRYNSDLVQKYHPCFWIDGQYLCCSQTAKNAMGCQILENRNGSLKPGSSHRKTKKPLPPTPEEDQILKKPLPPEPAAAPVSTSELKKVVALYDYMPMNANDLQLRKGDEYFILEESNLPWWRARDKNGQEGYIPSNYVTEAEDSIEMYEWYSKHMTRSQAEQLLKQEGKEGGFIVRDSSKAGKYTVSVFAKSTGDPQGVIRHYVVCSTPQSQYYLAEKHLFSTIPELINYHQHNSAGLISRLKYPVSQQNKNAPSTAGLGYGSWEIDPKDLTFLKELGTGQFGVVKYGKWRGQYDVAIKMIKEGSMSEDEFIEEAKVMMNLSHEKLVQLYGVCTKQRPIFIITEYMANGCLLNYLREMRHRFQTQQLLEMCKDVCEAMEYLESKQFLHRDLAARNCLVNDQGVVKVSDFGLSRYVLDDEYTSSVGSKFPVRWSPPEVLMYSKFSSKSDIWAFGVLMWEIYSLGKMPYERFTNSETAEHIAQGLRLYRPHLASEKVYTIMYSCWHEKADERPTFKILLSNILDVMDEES
# Chain of Tyrosine-protein kinase Lyn (P07948 whole entry): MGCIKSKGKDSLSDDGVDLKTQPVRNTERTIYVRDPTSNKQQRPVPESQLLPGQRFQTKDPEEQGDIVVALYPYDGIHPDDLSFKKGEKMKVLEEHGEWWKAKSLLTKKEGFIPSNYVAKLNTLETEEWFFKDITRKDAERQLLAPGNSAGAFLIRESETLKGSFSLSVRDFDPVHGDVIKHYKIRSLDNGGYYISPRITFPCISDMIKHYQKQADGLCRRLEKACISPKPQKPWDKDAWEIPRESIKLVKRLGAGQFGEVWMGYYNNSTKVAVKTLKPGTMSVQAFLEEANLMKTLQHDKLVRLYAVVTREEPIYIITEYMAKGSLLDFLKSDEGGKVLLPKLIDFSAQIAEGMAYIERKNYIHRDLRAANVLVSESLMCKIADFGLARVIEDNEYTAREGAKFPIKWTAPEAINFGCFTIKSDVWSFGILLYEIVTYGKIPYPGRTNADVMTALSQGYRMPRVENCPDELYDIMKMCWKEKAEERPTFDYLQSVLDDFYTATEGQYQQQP
smiles,measurement,setting,value
CN1CCN(c2nc(C3=C(c4c[nH]c5ccccc45)C(=O)NC3=O)c3ccccc3n2)CC1 [SOTRASTAURIN],Ki,[1],3.16 µM (active)
same,Ki,[2],> 6.31 µM (inactive)
same,Ki,[3],0.0316 µM (active)
same,Ki,[4],> 2 µM (inactive)
same,Ki,[5],> 2.51 µM (inactive)
same,Ki,[6],0.0126 µM (active)
same,Ki,[7],0.316 µM (active)
same,Ki,Activated CDC42 kinase 1,> 3.98 µM (inactive)
same,Ki,[8],> 2.51 µM (inactive)
same,Ki,[9],2.51 µM (active)
same,Ki,[10],> 1.58 µM (inactive)
same,Ki,[11],> 1.58 µM (inactive)
same,Ki,[12],> 2 µM (inactive)
same,Ki,[13],> 3.98 µM (inactive)
same,Ki,[14],3.16 µM (active)
same,Ki,[15],> 1.58 µM (inactive)
same,Ki,[16],> 7.94 µM (inactive)
same,Ki,[17],> 3.16 µM (inactive)
same,Ki,Activin receptor type-1,> 3.98 µM (inactive)
same,Ki,[18],> 5.01 µM (inactive)
same,Ki,[19],1 µM (active)
same,Ki,[20],> 3.98 µM (inactive)
same,Ki,[21],> 1.58 µM (inactive)
same,Ki,Aurora kinase B,> 5.01 µM (inactive)
same,Ki,[22],> 2.51 µM (inactive)
same,Ki,[23],> 1.58 µM (inactive)
CCCCCCCCCCOC(=O)C[n+]1c(COc2ccc(C)cc2)n(C)c2ccccc21,EC50,HEK293,> 55.9 µM (inactive)
same,EC50,[24],6.2 µM (active)
CC[C@@H](CO)NC(=O)[C@@H]1C=C2c3cccc4c3c(cn4C)C[C@H]2N(C)C1 [METHYSERGIDE MALEATE],EC50,[25],10.3 µM (active) and 14.3 µM (active)
same,EC50,[26],12.3 µM (active) and 20 µM (inconclusive)
CCN1/C(=C\c2ccc3ccccc3[n+]2CC)Sc2cc(C)ccc21,IC50,[27],23.5 µM (active)
same,CC50,[28],14.4 µM (active)
same,IC50,[29],16.1 µM (inactive)
same,IC50,Exodeoxyribonuclease V,72.8 µM (inactive)
